IC50 data for 28 compounds are collected here from ChEMBL document CHEMBL5370599, “Discovery of a 53BP1 Small Molecule Antagonist Using a Focused DNA-Encoded Library Screen” (J Med Chem, 2023).

pIC50: −log10 of the molar value.

The test concerns the target TP53-binding protein 1 (Homo sapiens, UniProt Q12888). As to the kind of experiment: Displacement of Biotin-p53K381acK382me2 from N-terminal his6-tagged 53BP1 (1484 to 1603 residues) (unknown origin) expressed in Rosetta2 BL21 (DE3) pLysS competent cells by TR-FRET assay. The format is single protein. Background: In TR-FRET formats the signal depends on donor and acceptor labels being close together.

Chain of TP53-binding protein 1 (Q12888 whole entry, the tested form may be a part): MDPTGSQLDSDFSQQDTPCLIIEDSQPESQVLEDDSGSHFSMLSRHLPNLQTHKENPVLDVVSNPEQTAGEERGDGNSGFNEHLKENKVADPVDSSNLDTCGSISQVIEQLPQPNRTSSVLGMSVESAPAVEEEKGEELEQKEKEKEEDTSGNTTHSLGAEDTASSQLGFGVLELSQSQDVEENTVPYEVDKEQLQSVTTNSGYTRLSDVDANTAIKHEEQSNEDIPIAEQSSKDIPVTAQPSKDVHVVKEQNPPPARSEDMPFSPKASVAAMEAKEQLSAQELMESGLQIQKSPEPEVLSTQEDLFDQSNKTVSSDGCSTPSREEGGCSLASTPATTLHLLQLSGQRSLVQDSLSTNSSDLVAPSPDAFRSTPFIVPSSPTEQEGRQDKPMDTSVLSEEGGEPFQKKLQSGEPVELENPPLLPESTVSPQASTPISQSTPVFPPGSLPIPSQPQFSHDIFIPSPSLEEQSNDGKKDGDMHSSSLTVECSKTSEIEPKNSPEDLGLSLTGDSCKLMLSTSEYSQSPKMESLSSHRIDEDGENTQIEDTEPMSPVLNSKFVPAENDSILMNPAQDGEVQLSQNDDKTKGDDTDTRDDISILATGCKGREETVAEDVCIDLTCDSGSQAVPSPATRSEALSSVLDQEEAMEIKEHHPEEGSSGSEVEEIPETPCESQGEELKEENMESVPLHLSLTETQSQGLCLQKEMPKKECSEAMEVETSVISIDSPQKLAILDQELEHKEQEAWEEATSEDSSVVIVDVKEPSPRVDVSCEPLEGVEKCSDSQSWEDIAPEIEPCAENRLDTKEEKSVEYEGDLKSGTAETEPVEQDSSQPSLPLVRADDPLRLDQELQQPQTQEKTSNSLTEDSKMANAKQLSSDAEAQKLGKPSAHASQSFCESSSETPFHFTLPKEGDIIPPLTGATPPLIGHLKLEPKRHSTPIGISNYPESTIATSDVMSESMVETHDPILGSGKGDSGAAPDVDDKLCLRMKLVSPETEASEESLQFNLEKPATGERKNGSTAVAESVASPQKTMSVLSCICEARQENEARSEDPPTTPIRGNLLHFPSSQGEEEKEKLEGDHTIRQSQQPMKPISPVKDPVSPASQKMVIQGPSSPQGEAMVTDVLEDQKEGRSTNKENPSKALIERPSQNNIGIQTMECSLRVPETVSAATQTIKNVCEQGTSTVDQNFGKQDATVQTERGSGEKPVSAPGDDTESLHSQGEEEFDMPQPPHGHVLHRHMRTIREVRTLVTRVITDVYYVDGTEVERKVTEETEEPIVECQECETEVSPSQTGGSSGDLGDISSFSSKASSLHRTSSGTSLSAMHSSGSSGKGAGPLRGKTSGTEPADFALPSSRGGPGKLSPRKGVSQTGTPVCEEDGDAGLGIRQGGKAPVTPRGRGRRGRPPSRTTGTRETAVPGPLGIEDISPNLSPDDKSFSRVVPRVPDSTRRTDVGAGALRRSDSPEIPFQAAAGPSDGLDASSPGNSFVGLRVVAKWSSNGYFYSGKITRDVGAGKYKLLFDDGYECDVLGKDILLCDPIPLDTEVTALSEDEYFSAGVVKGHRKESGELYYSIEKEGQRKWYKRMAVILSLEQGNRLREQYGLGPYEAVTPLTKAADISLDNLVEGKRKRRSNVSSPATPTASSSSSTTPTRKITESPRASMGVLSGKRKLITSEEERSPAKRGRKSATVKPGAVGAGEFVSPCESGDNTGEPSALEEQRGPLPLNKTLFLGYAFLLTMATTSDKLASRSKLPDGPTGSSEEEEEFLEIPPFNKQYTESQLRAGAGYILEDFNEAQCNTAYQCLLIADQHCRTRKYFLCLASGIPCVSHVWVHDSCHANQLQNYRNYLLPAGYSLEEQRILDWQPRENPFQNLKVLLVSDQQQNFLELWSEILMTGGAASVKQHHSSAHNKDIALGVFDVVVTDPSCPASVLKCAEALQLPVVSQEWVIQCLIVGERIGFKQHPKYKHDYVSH

For orientation: pIC50 means the IC50 on a negative log10 scale, so that one unit is a factor of ten. High values mean a low IC50, low ones a high IC50. In the case of `CN1CCN(c2ccnc(C(=O)N3CCC[C@H](C(=O)Nc4cccc(-c5ccc6c(c5)CNC6=O)c4)C3)c2)CC1`, the pIC50 is 5.47.
As for `CC(C)N1CCN(c2ccnc(C(=O)N3CCC[C@H](C(=O)Nc4cccc(-c5ccc(C(N)=O)cc5)c4)C3)c2)CC1`, the pIC50 was 5.39.
In turn, `CN1CCN(c2ccnc(C(=O)N3CCC[C@H](C(=O)Nc4cccc(-c5cccc(C(N)=O)c5)c4)C3)c2)CC1` showed a pIC50 of 5.72.
`CN1CCN(c2ccnc(C(=O)N3CCC[C@H](C(=O)Nc4cccc(-c5ccccc5)n4)C3)c2)CC1` gave a pIC50 of 5.13.
`CN1CCN(c2ccnc(C(=O)N3CCC[C@H](C(=O)Nc4cccc(-c5ccc6[nH]cnc6c5)c4)C3)c2)CC1` showed a pIC50 of 4.42.
Next, `CCCN1CCN(c2ccnc(C(=O)N3CCC[C@H](C(=O)Nc4cccc(-c5ccc(C(N)=O)cc5)c4)C3)c2)CC1`: 4.85; `CN1CCN(c2ccnc(C(=O)N3CCC[C@H](C(=O)Nc4cccc(N5CCNCC5)c4)C3)c2)CC1`: 4.36.
Next, `CN1CCN(c2ccnc(C(=O)N3CCC[C@@H]3C(=O)Nc3cccc(-c4ccc(C(N)=O)cc4)c3)c2)CC1`: 5.30; `CN1CCN(c2ccnc(C(=O)N3CCC[C@H](C(=O)Nc4cccc(-c5ccc6c(c5)CCCN6)c4)C3)c2)CC1`: 4.92; `CN1CCN(c2ccnc(C(=O)N3CCC[C@H](C(=O)Nc4cccc(N5CCOCC5)c4)C3)c2)CC1`: 4.49.
Next, `CN1CCN(c2ccnc(C(=O)N3CCC[C@H](C(=O)Nc4ccccc4)C3)c2)CC1`: 4.66; `CNC(=O)[C@H]1CCCN(C(=O)c2cc(N3CCN(C)CC3)ccn2)C1`: less than 4.00; `CN1CCN(c2ccnc(C(=O)N3CC[C@H]3C(=O)Nc3cccc(-c4ccc(C(N)=O)cc4)c3)c2)CC1`: 5.24.
`CN1CCN(c2ccnc(C(=O)N3CCC[C@H](C(=O)Nc4cccc(-c5cccc(C(=O)O)c5)c4)C3)c2)CC1` had a pIC50 of 4.08. This pIC50 lies 1.16 log units lower than the previous one.
Compound `CN1CCN(c2ccnc(C(=O)N3CCC[C@H](C(=O)Nc4cccc(-c5ccc6[nH]ncc6c5)c4)C3)c2)CC1` showed a pIC50 of 4.82. Against the preceding compound, the pIC50 is 0.74 log units higher.
Compound `CCN1CCN(c2ccnc(C(=O)N3CCC[C@H](C(=O)Nc4cccc(-c5ccc(C(N)=O)cc5)c4)C3)c2)CC1` showed a pIC50 of 5.85.
Take `CN1CCN(c2ccnc(C(=O)N3CCC[C@H](C(=O)Nc4cccc(-c5ccc6c(c5)CCN6)c4)C3)c2)CC1`: the pIC50 was 5.11. Against the preceding compound, the pIC50 is 0.74 log units lower.
Take `CN1CCN(c2ccnc(C(=O)N3CC[C@H](C(=O)Nc4cccc(-c5ccc(C(N)=O)cc5)c4)C3)c2)CC1`: the pIC50 was 5.66.
Take `CN1CCN(c2ccnc(C(=O)N3CCC[C@H](C(=O)Nc4cccc(-c5ccc(C(=O)O)cc5)c4)C3)c2)CC1`: the pIC50 was 5.09. Against the preceding compound, the pIC50 is 0.57 log units lower.
Next, `COC(=O)c1ccc(-c2cccc(NC(=O)[C@H]3CCCN(C(=O)c4cc(N5CCN(C)CC5)ccn4)C3)c2)cc1`: 5.00; `CN1CCN(c2ccnc(C(=O)N3CCC[C@H](C(=O)Nc4cncc(-c5ccccc5)c4)C3)c2)CC1`: 5.23; `CNC(=O)c1ccc(-c2cccc(NC(=O)[C@H]3CCCN(C(=O)c4cc(N5CCN(C)CC5)ccn4)C3)c2)cc1`: 5.25.
Next, `COC(=O)c1cccc(-c2cccc(NC(=O)[C@H]3CCCN(C(=O)c4cc(N5CCN(C)CC5)ccn4)C3)c2)c1`: 5.00.
On to `CN1CCN(c2ccnc(C(=O)N3CCC[C@H](C(=O)Nc4cccc(-c5ccccn5)c4)C3)c2)CC1`, for which the pIC50 is 4.74.
Then `CN1CCN(c2ccnc(C(=O)N3CCC[C@H](C(=O)Nc4cccc(-c5ccncc5)c4)C3)c2)CC1`, with 5.18.
`CN1CCN(c2ccnc(C(=O)N3CCC[C@H](C(=O)Nc4cc(-c5cccnc5)ncn4)C3)c2)CC1` gave a pIC50 of less than 4.00.
Compound `CN1CCN(c2ccnc(C(=O)N3CCC[C@H](C(=O)Nc4cccc(-c5ccc6c(c5)CCNC6)c4)C3)c2)CC1` gave a pIC50 of 4.55.
Then `CN1CCN(c2ccnc(C(=O)N3CCC[C@@H](C(=O)Nc4cccc(-c5ccc(C(N)=O)cc5)c4)C3)c2)CC1`, with 4.82.
